Experimental data from patent US7964531B2, “3-phenoxy-4-pyridazinol derivatives and herbicidal composition containing the same” (Mitsui Chemicals Agro, Inc., priority 2001, dated 2011).

How the values were obtained:
Assay type in all cases: in vivo
Conditions in all cases: wettable powder applied 3 days after transplanting, judged after 25 days
[1] = tested on: transplanted paddy-field rice; assay: Test Example 1: crop injury against transplanted paddy-field rice
Procedure, shortened: (§1)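 Greenhouse, flooded paddy soil; weeds from seed (top 1 cm), C. serotinus from germinated tubers, rice transplanted at 2.2-leaf stage. WP diluted in water, applied to pot day 3 post-transplant. Scored day 25 post-treatment, 0–5 inhibition scale.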

[2] = tested on: Cyperus serotinus; assay: Test Example 1: herbicidal effects, paddy-field pot test
Procedure, shortened: as §1

[3] = tested on: annual broad-leaved weeds (Lindernia spp., Rotala indica); assay: as above
Procedure, shortened: as §1

[4] = tested on: barnyardgrass (Echinochloa oryzicola Vasing.); assay: as above
Procedure, shortened: as §1

[5] = tested on: Scirpus joncoides; assay: as above
Procedure, shortened: as §1

| SMILES | Crop injury against transplanted rice ([1]; chemical dosage 10 g/a) | Crop injury against transplanted rice ([1]; chemical dosage 20 g/a) | Herbicidal effects Cyperus serotinus ([2]; chemical dosage 10 g/a) | Herbicidal effects Cyperus serotinus ([2]; chemical dosage 20 g/a) | Herbicidal effects Broad leaf ([3]; chemical dosage 10 g/a) | Herbicidal effects Broad leaf ([3]; chemical dosage 20 g/a) | Herbicidal effects Barnyard grass ([4]; chemical dosage 10 g/a) | Herbicidal effects Barnyard grass ([4]; chemical dosage 20 g/a) | Herbicidal effects Scirpus joncoides ([5]; chemical dosage 10 g/a) | Herbicidal effects Scirpus joncoides ([5]; chemical dosage 20 g/a) | Crop injury against transplanted rice ([1]; chemical dosage 12.5 g/a) | Crop injury against transplanted rice ([1]; chemical dosage 25 g/a) | Herbicidal effects Cyperus serotinus ([2]; chemical dosage 12.5 g/a) | Herbicidal effects Cyperus serotinus ([2]; chemical dosage 25 g/a) | Herbicidal effects Broad leaf ([3]; chemical dosage 12.5 g/a) | Herbicidal effects Broad leaf ([3]; chemical dosage 25 g/a) | Herbicidal effects Barnyard grass ([4]; chemical dosage 12.5 g/a) | Herbicidal effects Barnyard grass ([4]; chemical dosage 25 g/a) | Herbicidal effects Scirpus joncoides ([5]; chemical dosage 12.5 g/a) | Herbicidal effects Scirpus joncoides ([5]; chemical dosage 25 g/a) |
| --- | --- | --- | --- | --- | --- | --- | --- | --- | --- | --- | --- | --- | --- | --- | --- | --- | --- | --- | --- | --- |
| O=C(Oc1cc(Cl)nnc1Oc1ccccc1C1CC1)C1CC1 [Example 327] | 0 (Growth inhibition rate; 0 to 10%) | 0 (Growth inhibition rate; 0 to 10%) | 5 (Growth inhibition rate; 91 to 100%) | 5 (Growth inhibition rate; 91 to 100%) | 5 (Growth inhibition rate; 91 to 100%) | 5 (Growth inhibition rate; 91 to 100%) | 4 (Growth inhibition rate; 71 to 90%) | 4 (Growth inhibition rate; 71 to 90%) | 5 (Growth inhibition rate; 91 to 100%) | 5 (Growth inhibition rate; 91 to 100%) | – | – | – | – | – | – | – | – | – | – |
| COC(=O)Oc1cc(Cl)nnc1Oc1ccccc1C1CC1 [Example 345] | 0 (Growth inhibition rate; 0 to 10%) | 0 (Growth inhibition rate; 0 to 10%) | 5 (Growth inhibition rate; 91 to 100%) | 5 (Growth inhibition rate; 91 to 100%) | 5 (Growth inhibition rate; 91 to 100%) | 5 (Growth inhibition rate; 91 to 100%) | 3 (Growth inhibition rate; 51 to 70%) | 4 (Growth inhibition rate; 71 to 90%) | 5 (Growth inhibition rate; 91 to 100%) | 5 (Growth inhibition rate; 91 to 100%) | – | – | – | – | – | – | – | – | – | – |
| COc1cccc(C2CC2)c1Oc1nnc(Cl)cc1O [Example 276] | 0 (Growth inhibition rate; 0 to 10%) | 0 (Growth inhibition rate; 0 to 10%) | 5 (Growth inhibition rate; 91 to 100%) | 5 (Growth inhibition rate; 91 to 100%) | 5 (Growth inhibition rate; 91 to 100%) | 5 (Growth inhibition rate; 91 to 100%) | 3 (Growth inhibition rate; 51 to 70%) | 4 (Growth inhibition rate; 71 to 90%) | 3 (Growth inhibition rate; 51 to 70%) | 4 (Growth inhibition rate; 71 to 90%) | – | – | – | – | – | – | – | – | – | – |
| Cc1cc(Oc2nnc(Cl)cc2O)cc(C(C)C)c1 [Example 282] | – | – | – | – | – | – | – | – | – | – | 0 (Growth inhibition rate; 0 to 10%) | 0 (Growth inhibition rate; 0 to 10%) | 4 (Growth inhibition rate; 71 to 90%) | 5 (Growth inhibition rate; 91 to 100%) | 5 (Growth inhibition rate; 91 to 100%) | 5 (Growth inhibition rate; 91 to 100%) | 0 (Growth inhibition rate; 0 to 10%) | 0 (Growth inhibition rate; 0 to 10%) | 3 (Growth inhibition rate; 51 to 70%) | 4 (Growth inhibition rate; 71 to 90%) |
| Oc1cc(Cl)nnc1Oc1cccc2c1C1CC1C2 (centres unmarked) [Example 14] | 0 (Growth inhibition rate; 0 to 10%) | – | 5 (Growth inhibition rate; 91 to 100%) | – | 5 (Growth inhibition rate; 91 to 100%) | – | 0 (Growth inhibition rate; 0 to 10%) | – | 4 (Growth inhibition rate; 71 to 90%) | – | – | – | – | – | – | – | – | – | – | – |
| CCc1cccc(C2CC2)c1Oc1nnc(Cl)cc1O [Example 269] | 3 (Growth inhibition rate; 51 to 70%) | 5 (Growth inhibition rate; 91 to 100%) | 5 (Growth inhibition rate; 91 to 100%) | 5 (Growth inhibition rate; 91 to 100%) | 5 (Growth inhibition rate; 91 to 100%) | 5 (Growth inhibition rate; 91 to 100%) | 2 (Growth inhibition rate; 31 to 50%) | 3 (Growth inhibition rate; 51 to 70%) | 5 (Growth inhibition rate; 91 to 100%) | 5 (Growth inhibition rate; 91 to 100%) | – | – | – | – | – | – | – | – | – | – |
| O=[N+]([O-])c1ccc(S(=O)(=O)Oc2cc(Cl)nnc2Oc2ccccc2C2CC2)cc1 [Example 394] | 0 (Growth inhibition rate; 0 to 10%) | 0 (Growth inhibition rate; 0 to 10%) | 5 (Growth inhibition rate; 91 to 100%) | 5 (Growth inhibition rate; 91 to 100%) | 5 (Growth inhibition rate; 91 to 100%) | 5 (Growth inhibition rate; 91 to 100%) | 2 (Growth inhibition rate; 31 to 50%) | 3 (Growth inhibition rate; 51 to 70%) | 4 (Growth inhibition rate; 71 to 90%) | 5 (Growth inhibition rate; 91 to 100%) | – | – | – | – | – | – | – | – | – | – |
| Oc1cc(Cl)nnc1Oc1c(Br)cccc1C1CC1 [Example 253] | 5 (Growth inhibition rate; 91 to 100%) | 5 (Growth inhibition rate; 91 to 100%) | 5 (Growth inhibition rate; 91 to 100%) | 5 (Growth inhibition rate; 91 to 100%) | 5 (Growth inhibition rate; 91 to 100%) | 5 (Growth inhibition rate; 91 to 100%) | 3 (Growth inhibition rate; 51 to 70%) | 4 (Growth inhibition rate; 71 to 90%) | 5 (Growth inhibition rate; 91 to 100%) | 5 (Growth inhibition rate; 91 to 100%) | – | – | – | – | – | – | – | – | – | – |
| CCCc1c(C)cc(C)cc1Oc1nnc(Cl)cc1O [Example 287] | – | – | – | – | – | – | – | – | – | – | 0 (Growth inhibition rate; 0 to 10%) | 0 (Growth inhibition rate; 0 to 10%) | 1 (Growth inhibition rate; 11 to 30%) | 3 (Growth inhibition rate; 51 to 70%) | 5 (Growth inhibition rate; 91 to 100%) | 5 (Growth inhibition rate; 91 to 100%) | 0 (Growth inhibition rate; 0 to 10%) | 0 (Growth inhibition rate; 0 to 10%) | 5 (Growth inhibition rate; 91 to 100%) | 5 (Growth inhibition rate; 91 to 100%) |
| CCc1cccc(Cl)c1Oc1nnc(Cl)cc1O [Example 243] | – | – | – | – | – | – | – | – | – | – | 0 (Growth inhibition rate; 0 to 10%) | 0 (Growth inhibition rate; 0 to 10%) | 5 (Growth inhibition rate; 91 to 100%) | 5 (Growth inhibition rate; 91 to 100%) | 5 (Growth inhibition rate; 91 to 100%) | 5 (Growth inhibition rate; 91 to 100%) | 1 (Growth inhibition rate; 11 to 30%) | 2 (Growth inhibition rate; 31 to 50%) | 4 (Growth inhibition rate; 71 to 90%) | 4 (Growth inhibition rate; 71 to 90%) |
| Cc1cccc(C(C)(C)C)c1Oc1nnc(Cl)cc1O [Example 22] | – | – | – | – | – | – | – | – | – | – | 1 (Growth inhibition rate; 11 to 30%) | 2 (Growth inhibition rate; 31 to 50%) | 3 (Growth inhibition rate; 51 to 70%) | 4 (Growth inhibition rate; 71 to 90%) | 5 (Growth inhibition rate; 91 to 100%) | 5 (Growth inhibition rate; 91 to 100%) | 1 (Growth inhibition rate; 11 to 30%) | 2 (Growth inhibition rate; 31 to 50%) | 2 (Growth inhibition rate; 31 to 50%) | 4 (Growth inhibition rate; 71 to 90%) |
| Oc1cc(Cl)nnc1Oc1cccc2ccccc12 [Example 180] | – | – | – | – | – | – | – | – | – | – | 0 (Growth inhibition rate; 0 to 10%) | 0 (Growth inhibition rate; 0 to 10%) | 5 (Growth inhibition rate; 91 to 100%) | 5 (Growth inhibition rate; 91 to 100%) | 5 (Growth inhibition rate; 91 to 100%) | 5 (Growth inhibition rate; 91 to 100%) | 0 (Growth inhibition rate; 0 to 10%) | 0 (Growth inhibition rate; 0 to 10%) | 2 (Growth inhibition rate; 31 to 50%) | 3 (Growth inhibition rate; 51 to 70%) |
| Cc1ccc(Cl)cc1Oc1nnc(Cl)cc1O [Example 204] | – | – | – | – | – | – | – | – | – | – | 0 (Growth inhibition rate; 0 to 10%) | 0 (Growth inhibition rate; 0 to 10%) | 5 (Growth inhibition rate; 91 to 100%) | 5 (Growth inhibition rate; 91 to 100%) | 5 (Growth inhibition rate; 91 to 100%) | 5 (Growth inhibition rate; 91 to 100%) | 2 (Growth inhibition rate; 31 to 50%) | 2 (Growth inhibition rate; 31 to 50%) | 5 (Growth inhibition rate; 91 to 100%) | 5 (Growth inhibition rate; 91 to 100%) |
